Laboratory results: patent US20150173356A1, “COMPOSITIONS OF VOLATILE ORGANIC COMPOUNDS AND METHODS OF USE THEREOF” (Synthetic Genomics, Inc., priority 2009, published 2015)

Legend:
Experiment in all cases: Petri plate (PDA) volatile bioassay, liquid in a small cup in the centre of the plate
Assay type in all cases: cell-based
Conditions in all cases: 2.5-20 microliters in cup, sealed plate, 3 days
Ganoderma boninense = test system: Ganoderma boninense
Protocol: (§1) To test the bioactivity, the mixture was placed in a small cup in the center of a Petri plate with potato dextrose agar (PDA) (Strobel et al., 2001 Microbiology 147: 2943-2950). The volumes of liquid tested were 0, 2.5, 5.0, 10.0 and 20 microliters as per Strobel et al., supra. Then small cubes of fungal inoculum grown on PDA were also applied to the plate. The plates were sealed with parafilm and incubated for 3 days, at which time measurements of hyphal development were made. Also, after 3 days the small plug of fungal inoculum was removed from the plate and transferred to a fresh PDA plate to determine if the test fungus was still alive (capable of growth) and this was recorded.

Pythium ultimum = test system: Pythium ultimum
Protocol: as §1

Phytophthora palmivora = test system: Phytophthora palmivora
Protocol: as §1

Compound	growth inhibition (hyphal development) (Ganoderma boninense)	test fungus still alive (capable of growth) after transfer of inoculum plug to fresh PDA (Ganoderma boninense)	growth inhibition (hyphal development) (Pythium ultimum)	test fungus still alive (capable of growth) after transfer of inoculum plug to fresh PDA (Pythium ultimum)	growth inhibition (hyphal development) (Phytophthora palmivora)	test fungus still alive (capable of growth) after transfer of inoculum plug to fresh PDA (Phytophthora palmivora)
CC(C)C(=O)O [isobutyric acid, 2-methyl propanoic acid]	inhibited	not killed	inhibited	not killed	inhibited	not killed
COC(=O)C(C)C [methyl isobutyrate, methyl-2-methylpropanoate]	no growth inhibition		no growth inhibition		no growth inhibition	
